Source: patent US20240009214A1 (priority 2020, published 2024)
Where a name gives a salt, the structure may show the parent alone.

What was measured:
[1] = system: SARS-COV-2 strain NIV 2020-770; test: microbe, parasite or virus in culture; type: cell-based; conditions: for IC50: Severe acute respiratory syndrome coronavirus 2, 72 h; for SI (selectivity index): against SARS-CoV-2
[2] = Cell cytotoxicity determination (MTT) in Vero CCL-81 cells; type: cell-based; conditions: monkey
Procedure: Cell Cytotoxicity determination: 100 μL Vero CCL-81 cells were seeded on to 96 well plate at a density of 3×10^6 cells/mL. The plates were incubated for 24 hrs at 37° C. with 5% CO2. After overnight incubation the spent medium was discarded and 100 μL of different concentrations of each drugs prepared earlier from the stock was added to the respective wells in quadruplets. The plates were incubated for 72 hr at 37° C. in 5% CO2. After the incubation, the medium containing drug was discarded. The cell monolayer was washed by adding 100 μL of 1×PBS. 100 μL of plain MEM and 50 μl of MTT (2 mg/ml concentration) was added to each well. Followed by incubation for 4 hrs at 37° C. in 5% CO2. At the end of incubation, the cell supernatant was discarded and 200 μl of DMSO was added to each well to dissolve the formazan crystals. 25 μL of Sorensen's glycine buffer was added immediately to each well. The plates were incubated in dark for 30 min at room temperature. The OD was measured at 570 nm using ELISA plate reader. CC50 value was plotted using Prism Pad application.

[3] = In vitro toxicity in WI-38 cells (MTS-PMS kit); type: cell-based; conditions: human, WI-38 human lung fibroblast cells, read-out: IC50 (cytotoxicity)
Excerpt: (§1) The toxicity of ((((((R)-1-(6-amino-9H-purin-9-yl) propan-2-yl) oxy) methyl) (phenoxy) phosphoryl)oxy)methyl pivalate fumarate and Metabolite of compound of formula 1 in different human lung cells viz, WI-38 (human lung fibroblast cells) and Calu-3 (human lung bronchial cells) by using the MTS-PMS kit investigated.
(§2) MTS-PMS kit details (CellTiter 96@ Aqueous kit)
This is a colorimetric method for determining the number of viable cell measures viable cells in proliferation, cytotoxicity or chemosensitivity assays. The assay is composed of solutions of a novel tetrazolium compound [3-(4,5-dimethylthiazol-2-yl)-5-(3-carboxymethoxyphenyl)-2-(4-sulfophenyl)-2H-tetrazolium, inner salt; MTS] and an electron coupling reagent (phenazine methosulfate) PMS. MTS is bioreduced by cells into a formazan product that is soluble in tissue culture medium. The absorbance of the formazan product at 490 nm can be measured directly from 96-well assay plates without additional processing. The conversion of MTS into the aqueous soluble formazan product is accomplished by dehydrogenase enzymes found in metabolically active cells. The quantity of formazan product as measured by the amount of 490 nm absorbance is directly proportional to the number of living cells in culture.
Respective cells were harvested from exponential phase cultures, […] on the cell line's growth rate. After a 24 h recovery period to allow the cells to resume exponential growth. TPF or Metabolite of compound of formula 1 was applied at 6-8 concentrations in duplicate and treatment continued for different time points. After completion of incubation 20 μL/well MTS-PMS reagent was added to each well (MTS-PMS was prepared as follows: CellTiter 96@AQueous Assay Reagents MTS Solution and the PMS Solution should be thawed before use. Remove 2.0 ml of MTS Solution. Add […] of PMS Solution to the 2.0 ml of MTS Solution immediately). Following an incubation period of up to four hours, the plate was read to 490 nm. For calculations, the mean values of duplicate data were used. Sigmoidal concentration-response curves were fitted to the data points (T/C values) obtained for each cell line using 4 parameter non-linear curve fit.
Cells were harvested from exponential phase cultures, […] on the cell line's growth rate. After a 24 h recovery period to allow the cells to resume exponential growth. TPF or Metabolite of compound of formula 1 was applied at 6-8 concentrations in duplicate and treatment continued for different time points. For Calu-3 cells the treatment was the treatment was for 72 hrs while WI-38 cells were treated for 48 and 96 hrs. After the treatment of cells, 20 μL/well MTS-PMS reagent was added. Following an incubation period of up to four hours, the plate was read to 490. […]

[4] = In vitro toxicity in Calu-3 cells (MTS-PMS kit); type: cell-based; conditions: human, Calu-3 human lung bronchial cells, read-out: IC50 (cytotoxicity)
Excerpt: as §1, §2
This is a colorimetric method for determining the number of viable cell measures viable cells in proliferation, cytotoxicity or chemosensitivity assays. […] The absorbance of the formazan product at 490 nm can be measured directly from 96-well assay plates without additional processing. […] The quantity of formazan product as measured by the amount of 490 nm absorbance is directly proportional to the number of living cells in culture.
Respective cells were harvested from exponential phase cultures, […] on the cell line's growth rate. […] Following an incubation period of up to four hours, the plate was read to 490 nm. […]
Cells were harvested from exponential phase cultures, […] on the cell line's growth rate. […] Following an incubation period of up to four hours, the plate was read to 490. […]

[5] = system: A549 (human lung alveolar cells) monolayer
in vitro = conditions: human

SMILES	IC50 [1] [µM]	SI (selectivity index) ([1]; window between cytotoxicity (CC50) and antiviral activity (IC50), fumarate)	SI (selectivity index) ([1]; window between cytotoxicity (CC50) and antiviral activity (IC50); fumarate))	CC50 at 72 h [2] [µM]	IC50 at 48 h [3] [µM]	IC50 at 96 h [3] [µM]	IC50 at 72 h [4] [µM]	permeability classification [5]	P-app ([5]; apical to basal) [nm/s]	SI (selectivity index) ([1]; window between cytotoxicity (CC50) and antiviral activity (IC50))	SI (selectivity index) ([1]; window between cytotoxicity (CC50) and antiviral activity (IC50), listed as compound of formula 2)	Papp A→B (in vitro) [×10⁻⁶ cm/s]
C[C@H](Cn1cnc2c(N)ncnc21)OC[P@@](=O)(OCOC(=O)C(C)(C)C)Oc1ccccc1 [((((((R)-1-(6-amino-9H-purin-9-yl)propan-2-yl)oxy)methyl) (phenoxy)phosphoryl)oxy)methyl pivalate fumarate]	< 1	>100	> 100	> 100	> 100	> 100	> 100	highly permeable	> 200			
C[C@H](Cn1cnc2c(N)ncnc21)OCP(=O)(O)Oc1ccccc1 [Compound of formula 2, tenphenol]	~12			> 100	> 100	> 100	> 100	moderately permeable		>8.33	8.33	< 20
